Experimental data as given in patent US11214803B2, “Modulators of YAP1 expression” (Ionis Pharmaceuticals, Inc., priority 2019, dated 2022).

System: SCC25 cells
Experiment: Cell proliferation assay in SCC25 cells, CellTiter-Glo (Example 25)
Type: cell-based, human
Conditions: free uptake, 144 hours
Procedure: Modified oligonucleotides described in the studies above were tested at various doses in squamous cell carcinoma cell SCC25. A control oligonucleotide 792169 (a 3-10-3 cET gapmer with a full phosphorothioate backbone, […], designated herein as SEQ ID No.: 2940; is not complementary to any known human gene) was also tested.
Cultured SCC25 cells at a density of 1,000 cells/well were treated using free uptake with modified oligonucleotides diluted to concentrations described in the tables below. After approximately 144 hours, cell proliferation was measured using the luminescent cell viability CellTiter-Glo® 2.0 Assay (Promega). Results are presented in the tables below as percent control of the amount of luminescence in samples treated with modified oligonucleotides relative to untreated control cells (% UTC).

Substance	cell proliferation (luminescence) % UTC (0.04 μM)	cell proliferation (luminescence) % UTC (0.2 μM)	cell proliferation (luminescence) % UTC (1 μM)	cell proliferation (luminescence) % UTC (5 μM)
1197270 (TTAAAGTGTATGTCAG; cEt gapmer with 2'-OMe nucleoside, phosphorothioate, further chemistry not given here) [compound 1197270]	75 % UTC	40 % UTC	22 % UTC	14 % UTC
1198605 (GTAATATTGCAATCTG; modified gapmer, further chemistry not given here) [compound 1198605]	77 % UTC	39 % UTC	23 % UTC	13 % UTC
1198623 (CTAAGTAAGGTTTCCC; modified gapmer, further chemistry not given here) [compound 1198623]	84 % UTC	55 % UTC	36 % UTC	29 % UTC
1198872 (TGTATGTCAGAAGAGT; chemically modified gapmer, further chemistry not given here) [compound 1198872]	82 % UTC	37 % UTC	22 % UTC	18 % UTC
1198831 (CACTTTTACATTAGGA; chemically modified gapmer, further chemistry not given here) [compound 1198831]	88 % UTC	54 % UTC	25 % UTC	21 % UTC
1198439 (AGTGTATGTCAGAAGA; sugar, 5-methylcytosine, phosphorothioate modifications, further chemistry not given here) [compound 1198439]	62 % UTC	30 % UTC	22 % UTC	16 % UTC
958499 (ATTAGAGTATGTGGCA; 3-10-3 cEt gapmer, further chemistry not given here) [compound 958499]	76 % UTC	42 % UTC	25 % UTC	14 % UTC
1198728 (TATTAGAGTATGTGGC; modified gapmer, further chemistry not given here) [compound 1198728]	88 % UTC	61 % UTC	30 % UTC	20 % UTC
1076453 (GTAATATTGCAATCTG; 3-10-3 cEt gapmer, further chemistry not given here) [compound 1076453]	81 % UTC	40 % UTC	23 % UTC	15 % UTC
